Measurements as given in US20230384334A1, “METHOD FOR CALCULATING DRINKING TIME” (Shanxi Medical University, priority 2022, published 2023).
Where two headings read alike, the source gives them in different places.

Conditions: in vivo
Procedure: Approved by the Medical Ethics Committee of Shanxi Medical University (2018LL349), a total of 26 adults including 14 men and 12 women are recruited by the team to participate in the study.
All the blood samples were stored at −20 DEG C. until the end of the analysis.
1 mL of blood and 1 mL of tert-butanol (IS, 87 mg/mL) were added to a headspace vial, diluted with 3 mL of ultrapure water, mixed in a sealed condition, and then analyzed by the headspace gas chromatography.
Metabolites EtG and EtS in blood samples were measured by liquid chromatography-tandem quadrupole mass spectrometry (LC-MS/MS) with EtG-D5 and EtS-D5 as internal standards. […] Then 800 μL of 80% acetonitrile in methanol was added, and the mixture is precipitated at 0 DEG C. for 10min. After that, centrifugation was performed at 13000 rpm for 5 min, supernatant was taken out, and dried, by blowing, with nitrogen at 35 DEG C., and then re-dissolved with 400 μL of 5% acetonitrile in water and centrifuged again at 13000 rpm for 5 min.
Chromatograph separation was performed via an LC-20 A system. Conditions of the chromatograph were as follows:
chromatographic column: Inertsil ODS-3 column (2.1 mm×100 mm, 3 μm; Shimadzu, Japan) , and column temperature: 35 DEG C.
Targeted substances were tested by a tandom mass spectrometer (TRAP4,000, Sciex, AB). The specific conditions were as follows:
Ion source: electron spray ionization (ESI); voltage of ion spray: −4000 V, and temperature: 500 DEG C.; curtain gas, nebulizer (Gas 1), and heating auxiliary gas (Gas 2): 40 psi, 50 psi, and 35 psi respectively.
Scanning mode: anions+multiple reaction monitoring (MRM).
The pharmacokinetic parameters were calculated by a non-compartmental model using a DAS 3.0 software. All data was summarized using descriptive statistics. […] All statistical analyses were performed using version 13.0 of an IBM SPSS® software (SPSS Inc., Chicago, IL, USA).

SMILES	AUC (0-t), area under the curve (human, po)	Cmax, peak concentration (human, po) [ng/mL]	Tmax, time to peak (human, po) [h]	t1/2z, half-life period (human, po) [h]	LOD (h) in human blood (po) [h]	Cmax, peak concentration (human, 0.72 g/kg) [ng/mL]	Clz/F, clearance rate (human, po) [L/h]	Vz/F, apparent volume of distribution (human, po) [L/kg]	Detection window time (maximum observed value) in blood (po) [h]
CCO[C@@H]1O[C@H](C(=O)O)[C@@H](O)[C@H](O)[C@H]1O [EtG, Ethyl glucuronide]	1990 ± 780 ng·h/mL	310 ± 110	4.12 ± 1.07	2.56 ± 0.89	22.15 ± 4.42				
CCOS(=O)(=O)O [EtS, Ethyl sulphate]	1040 ± 340 ng·h/mL	170 ± 40		2.04 ± 0.76	16.92 ± 6.23	170			
CCO [alcohol, Alcohol]	1,715.23 ± 626.72 mg/L*		2.02 ± 0.54		5.81 ± 1.74		0.49 ± 0.33	0.69 ± 0.49	3 to 8
